This passage reports IC50 results from publication PMC6128854 (Scientific Reports, 2018).

Positions of bridges follow the written chain, without caps; N, C: chain ends. Non-standard residues stand in square brackets, D forms with d. Residues, ends and D or L forms follow the SMILES beside them. Hyp = O=C(O)[C@@H]1C[C@@H](O)CN1

This test addresses hCav2.2 (Homo sapiens, UniProt Q00975). As to the kind of experiment: cell-based. To be noted: SEM.

hCav2.2, sequence (Q00975 whole entry, looked up): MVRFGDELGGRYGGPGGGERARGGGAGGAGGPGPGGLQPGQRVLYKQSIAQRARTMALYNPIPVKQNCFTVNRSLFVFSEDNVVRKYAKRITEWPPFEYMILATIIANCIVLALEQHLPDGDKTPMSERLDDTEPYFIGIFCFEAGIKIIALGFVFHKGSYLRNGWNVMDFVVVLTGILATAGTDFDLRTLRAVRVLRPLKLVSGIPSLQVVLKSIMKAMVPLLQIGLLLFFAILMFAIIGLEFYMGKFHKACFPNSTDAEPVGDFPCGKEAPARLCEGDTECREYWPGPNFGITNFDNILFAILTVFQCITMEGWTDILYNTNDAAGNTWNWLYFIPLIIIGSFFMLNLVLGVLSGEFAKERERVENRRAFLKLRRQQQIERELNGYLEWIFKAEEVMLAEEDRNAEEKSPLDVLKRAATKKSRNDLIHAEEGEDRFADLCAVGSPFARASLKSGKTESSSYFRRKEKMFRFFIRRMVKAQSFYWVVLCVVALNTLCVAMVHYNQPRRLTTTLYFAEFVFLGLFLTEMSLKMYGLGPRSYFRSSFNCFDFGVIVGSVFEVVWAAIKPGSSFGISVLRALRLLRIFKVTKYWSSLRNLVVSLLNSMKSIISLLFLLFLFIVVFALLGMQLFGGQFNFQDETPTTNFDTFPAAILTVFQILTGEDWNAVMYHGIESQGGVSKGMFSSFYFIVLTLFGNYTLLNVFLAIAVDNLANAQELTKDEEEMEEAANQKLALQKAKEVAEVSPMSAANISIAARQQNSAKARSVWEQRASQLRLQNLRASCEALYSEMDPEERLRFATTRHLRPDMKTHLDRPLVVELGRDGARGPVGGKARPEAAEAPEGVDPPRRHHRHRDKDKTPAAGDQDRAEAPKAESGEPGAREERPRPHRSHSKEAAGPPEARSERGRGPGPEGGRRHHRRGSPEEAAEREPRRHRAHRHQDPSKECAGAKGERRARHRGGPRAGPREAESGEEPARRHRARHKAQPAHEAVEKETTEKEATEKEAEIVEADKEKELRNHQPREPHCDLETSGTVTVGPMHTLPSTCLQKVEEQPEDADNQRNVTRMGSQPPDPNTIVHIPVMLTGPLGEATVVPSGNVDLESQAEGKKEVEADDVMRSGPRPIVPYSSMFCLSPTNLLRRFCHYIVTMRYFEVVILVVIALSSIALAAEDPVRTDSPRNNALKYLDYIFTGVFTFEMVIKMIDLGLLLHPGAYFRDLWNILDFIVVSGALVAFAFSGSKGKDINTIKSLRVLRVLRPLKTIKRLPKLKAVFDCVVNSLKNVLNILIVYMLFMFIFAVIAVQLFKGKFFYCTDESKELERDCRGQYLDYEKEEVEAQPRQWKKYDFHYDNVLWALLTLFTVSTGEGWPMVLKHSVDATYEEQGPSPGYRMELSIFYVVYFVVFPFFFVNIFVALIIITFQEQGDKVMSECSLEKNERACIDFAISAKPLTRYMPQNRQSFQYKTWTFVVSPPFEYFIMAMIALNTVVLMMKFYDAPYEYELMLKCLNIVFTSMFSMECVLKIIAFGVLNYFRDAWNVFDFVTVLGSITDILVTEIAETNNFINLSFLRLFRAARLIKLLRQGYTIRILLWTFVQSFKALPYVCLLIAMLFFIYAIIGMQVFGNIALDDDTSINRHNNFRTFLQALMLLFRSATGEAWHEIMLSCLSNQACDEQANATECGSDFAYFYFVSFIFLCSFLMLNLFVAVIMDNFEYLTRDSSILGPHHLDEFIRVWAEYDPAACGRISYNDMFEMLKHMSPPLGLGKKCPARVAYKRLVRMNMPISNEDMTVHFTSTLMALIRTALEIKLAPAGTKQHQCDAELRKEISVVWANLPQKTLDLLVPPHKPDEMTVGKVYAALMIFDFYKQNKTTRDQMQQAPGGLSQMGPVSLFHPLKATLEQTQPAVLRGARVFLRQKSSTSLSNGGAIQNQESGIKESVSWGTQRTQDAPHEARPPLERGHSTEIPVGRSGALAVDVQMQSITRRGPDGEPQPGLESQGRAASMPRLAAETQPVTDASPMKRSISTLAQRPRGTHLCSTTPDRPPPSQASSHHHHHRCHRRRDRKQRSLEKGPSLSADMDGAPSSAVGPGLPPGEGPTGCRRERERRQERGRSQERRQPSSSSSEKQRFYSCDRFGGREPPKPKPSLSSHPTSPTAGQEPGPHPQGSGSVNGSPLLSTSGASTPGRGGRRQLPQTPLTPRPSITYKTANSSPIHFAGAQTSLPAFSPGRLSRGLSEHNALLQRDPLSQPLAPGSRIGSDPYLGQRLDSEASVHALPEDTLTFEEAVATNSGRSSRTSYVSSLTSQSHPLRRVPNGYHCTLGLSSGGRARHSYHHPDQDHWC

Usually IC50 stands for the point on the concentration scale where inhibition reaches its midpoint. `CC[C@H](C)[C@@H]1NC(=O)[C@@H]2CSSC[C@@H]3NC(=O)[C@H](CCCCN)NC(=O)[C@H](CO)NC(=O)CNC(=O)[C@@H]4C[C@@H](O)CN4C(=O)[C@@H]4CCCN4C(=O)[C@H](CCCCN)NC(=O)[C@@H](N)CSSC[C@H](NC(=O)[C@H](CSSC[C@@H](C(=O)N[C@@H](CCCNC(=N)N)C(=O)N[C@@H](CCCCN)C(=O)N[C@@H](Cc4ccc(O)cc4)C(=O)N[C@@H](Cc4ccc(O)cc4)C(=O)O)NC(=O)[C@H](CCCNC(=N)N)NC(=O)[C@H](CCCCN)NC(=O)[C@H]([C@@H](C)O)NC(=O)[C@H](Cc4ccc(O)cc4)NC(=O)[C@H](CO)NC1=O)NC(=O)[C@H](CC(=O)O)NC(=O)[C@H](Cc1ccc(O)cc1)NC(=O)[C@H](CCSC)NC(=O)[C@H](CO)NC(=O)[C@@H]1C[C@@H](O)CN1C(=O)[C@H](CO)NC3=O)C(=O)N[C@@H]([C@@H](C)O)C(=O)N[C@@H]([C@@H](C)O)C(=O)N2` [MoVIB-[R13Y]] (H-CKP[Hyp]GSKCS[Hyp]SMYDCCTTCISYTKRCRKYY-OH; disulfide 1-16, 8-19, 15-26): the IC50 is 3.47 ± 0.55 µM.
